Laboratory results from patent US9605026B2, “Hydrogen-bond surrogate peptides and peptidomimetics for p53 reactivation” (New York University, priority 2013, dated 2017).

Experiments:
[1] = test system: p53; assay: Western blot of total and acetylated[K382] p53 in UMSCC47 cells; format: cell-based, human; conditions: 24 hours; for acetylated p53 levels / p53 accumulation (total p53 level): UMSCC47, 10 μM
Excerpt: (§1) FIG. 5A is an schematic illustration showing that CH1 has two distinct target sites. HIF1-α/p300 structures were used as guides to design helix mimetics that target site A and site B on the CH1 domain of p300. […] CH1iA (SEQ ID NO: 7) and CH1iB (SEQ ID NO: 8) were designed to mimic two helices from the C-terminal domain of HIF-1α. The peptides were locked into the helical conformation by the hydrogen bond surrogate method. FIG. 5C is a graph of p53 activity. UMSCC47 (left) and UMSCC74A (right) cells were co-transfected with a p53 Firefly luciferase reporter plasmid and a control Renilla luciferase plasmid. After 24 hours, cells were treated with control (vehicle), CH1iA (10 μM), or CH1iB (10 μM) for 24 hours. Firefly luciferase activity was normalized to Renilla luciferase activity to control for transfection efficiency. Data is normalized to control and presented as mean±SEM. *P<0.05, n=3. FIG. 5D is a western blot showing total and acetylated p53 levels. UMSCC47 (left) and UMSCC74A (right) cells were treated with control (vehicle), CH1iA (10 μM), or CH1iB (10 μM) for 24 hours. Cell lysates were immunoblotted with anti-p53 or anti-acetylated[K382]-p53 antibody. FIG. 5E is a pair of graphs of p300, p53, p21, miR-34a, and miR-200c expression. UMSCC47 (top panel) and UMSCC74A (bottom panel) cells were treated with control (vehicle), CH1iA (10 μM), or CH1iB (10 μM) for 24 hours. mRNA expression was determined using qPCR with validated TaqMan assays. Data is normalized to control cells and presented as mean±SEM. *P<0.01, control vs. CH1iB, n=3. FIG. 5F is a western blot showing HPV16 E6-p300 association. UMSCC47 cells were treated with control (vehicle), CH1iA (10 μM), or CH1iB (10 μM) for 24 hours. Cell lysates were extracted, immunoprecipitated with anti-p300 antibody, and immunoblotted with anti-E6 antibody. Cell lysates were immunoblotted with anti-E6 or anti-p300 antibody for input control. FIG. 5G is a set of graphs of cell proliferation. UMSCC47 (top left panel), UMSCC74A (top right panel), and IMR90 (human normal fibroblasts) (bottom panel) cells were treated with control (vehicle), CH1iA (10 μM), CH1iB (10 μM), cis-platinum (10 μM), CH1iA (10 μM) and cis-platinum (10 μM), or CH1iB (10 μM) and cis-platinum (10 μM) for 24, 48, or 72 hours. Data is normalized to Day 0 and presented as mean±SEM. *P<0.01, control vs. CH1iB or cis-platinum, **P<0.01 CH1iB or cis-platinum vs. CH1iB and cis-platinum, n=6.
FIG. 6A is a western blot showing total and acetylated p53 levels. UMSCC47 cells were treated with control (vehicle), CH1iB (10 μM), cis-platinum (10 μM), or CH1iB (10 μM) and cis-platinum (10 μM) for 24 hours. Cell lysates were immunoblotted with anti-p53 or anti-acetylated[K382]-p53 antibody. FIG. 6B is a graph of p53 transcriptional activity. UMSCC47 cells were co-transfected with a p53 Firefly luciferase reporter plasmid and a control Renilla luciferase plasmid. After 24 hours, cells were treated with control (vehicle), CH1iB (10 μM), cis-platinum (10 μM), or CH1iB (10 μM) and cis-platinum (10 μM) for 24 hours. Firefly luciferase activity was normalized to Renilla luciferase activity to control for transfection efficiency. Data is normalized to control and presented as mean±SEM. *P<0.01, control vs. CH1iB, cis-platinum or CH1iB+cis-platinum, **P<0.01 CH1iB or cis-platinum vs. CH1iB+cis-platinum, n=5. FIG. 6C is a graph of p300, p53, p21, miR-34a, and miR-200c expression. UMSCC47 cells were treated with control (vehicle), CH1iB (10 μM), cis-platinum (10 μM), or CH1iB (10 μM) and cis-platinum (10 μM) for 24 hours. mRNA expression was determined using qPCR with validated TaqMan assays. Data is normalized to control cells and presented as mean±SEM. *P<0.01, control vs. CH1iB, cis-platinum or CH1iB+cis-platinum, **P<0.01 CH1iB or cis-platinum vs. CH1iB+cis-platinum, n=3. FIG. 6D is a pair of graphs of apoptosis. […]

[2] = test system: UMSCC47 cells; assay: Cell proliferation (MTT) in UMSCC47 cells; format: cell-based, human; conditions: for cell proliferation, single-agent: UMSCC47, 10 μM, 24-72 hours
Excerpt: as §1
FIG. 7A is a graph of p53 transcriptional activity. UMSCC47 cells were co-transfected with a p53 Firefly luciferase reporter plasmid and a control Renilla luciferase plasmid. After 24 hours, cells were treated with control (vehicle) or CH1iB-mut (10 μM) for 24 hours. Firefly luciferase activity was normalized to Renilla luciferase activity to control for transfection efficiency. Data is presented as mean±SEM. *P<0.05, n=5. FIG. 7B is a graph of cell proliferation. UMSCC47 cells were treated with control (vehicle), CH1iB-mut (10 μM), cis-platinum (10 μM), or CH1iB-mut (10 μM) and cis-platinum (10 μM) for 24 or 48 hours. Data is normalized to Day 0 and presented as mean±SEM. *P<0.01, control or CH1iB-mut vs. cis-platinum or cis-platinum+CH1iB-mut, n=6.
Cell proliferation was assessed using the MTT reagent (Roche Molecular Biochemicals, Nutley, N.J.) to detect metabolic active cells. Absorbance was measured at 570 nm in the Spectra Max 190 ELISA reader (Molecular Devices, Sunnyvale, Calif.) after overnight incubation. […]

[3] = UMSCC47, CH1iB 10 μM with cis-platinum 10 μM

Substance	acetylated p53 levels [1]	p53 accumulation (total p53 level) [1]	effect of cis-platinum on p53 accumulation [1, 3]	effect of cis-platinum on p53 acetylation [1, 3]	effect on anti-proliferative efficacy of cis-platinum (combination) ([2]; UMSCC47, 10 μM with cis-platinum 10 μM)	cell proliferation, single-agent [2]
XELA*RALDQ-NH2 (ELXRALDQ; HBS: 4-pentenoic acid, N-allylalanine; C-terminal amide; CH1iB) [X 4-pentenoic acid, A* N-allylalanine]	enhanced	enhanced	potentiated	potentiated	potentiated	inhibited
XTAA*DCEYNAR (TAXDCEYNAR; HBS: 4-pentenoic acid, N-allylalanine; CH1iA) [X 4-pentenoic acid, A* N-allylalanine, reference compound]	no effect	no effect	–	–	–	inactive
